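Compound exposure: 48 hours, 5 concentrations, 96-well plates. At the GI50, growth is halved. TGI: total growth inhibition.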
Assays:
Experiment in all cases: NCI-60 cell line screen, 48 h
786-0 renal = system: 786-0 renal
RPMI-8226 leukemia = system: RPMI-8226 leukemia
KM12 colon = system: KM12 colon
CCRF-CEM leukemia = system: CCRF-CEM leukemia
OVCAR-8 ovarian = system: OVCAR-8 ovarian
SNB-19 CNS = system: SNB-19 CNS
A498 renal = system: A498 renal
SF-295 CNS = system: SF-295 CNS
NCI-H23 lung = system: NCI-H23 lung
MALME-3M melanoma = system: MALME-3M melanoma

CC1=C(C(=O)Nc2ccc(F)c(Cl)c2)C(c2cccc(O)c2)NC(=S)N1 (stereo unspecified)
GI50 (786-0 renal): 19.1 µM | TGI (786-0 renal): > 50 µM | GI50 (RPMI-8226 leukemia): 30.1 µM | TGI (RPMI-8226 leukemia): > 50 µM | GI50 (KM12 colon): 10.8 µM | TGI (KM12 colon): 35.8 µM | GI50 (CCRF-CEM leukemia): > 50 µM | TGI (CCRF-CEM leukemia): > 50 µM | GI50 (OVCAR-8 ovarian): 28.5 µM | TGI (OVCAR-8 ovarian): > 50 µM | GI50 (SNB-19 CNS): > 50 µM | TGI (SNB-19 CNS): > 50 µM | GI50 (A498 renal): 9.45 µM | TGI (A498 renal): 33.5 µM | GI50 (SF-295 CNS): 18 µM | TGI (SF-295 CNS): > 50 µM | GI50 (NCI-H23 lung): 19.2 µM | TGI (NCI-H23 lung): > 50 µM

COC1CCC2C(=O)CCCC2O1 (stereo unspecified)
TGI (786-0 renal): > 100 µM | TGI (RPMI-8226 leukemia): > 100 µM | TGI (KM12 colon): > 100 µM | TGI (OVCAR-8 ovarian): > 100 µM | TGI (SNB-19 CNS): > 100 µM | TGI (A498 renal): > 100 µM | TGI (MALME-3M melanoma): > 100 µM | TGI (SF-295 CNS): > 100 µM | TGI (NCI-H23 lung): > 100 µM

COc1cc(/C=C2\CC(C)CC3C2=NN(c2ccccc2)C3c2cc(OC)c(OC)c(OC)c2)cc(OC)c1OC (stereo unspecified)
GI50 (786-0 renal): 27 µM | TGI (786-0 renal): > 100 µM | GI50 (RPMI-8226 leukemia): 3 µM | TGI (RPMI-8226 leukemia): 26.5 µM | GI50 (KM12 colon): 7.28 µM | TGI (KM12 colon): 40.8 µM | GI50 (CCRF-CEM leukemia): 7.75 µM | TGI (CCRF-CEM leukemia): > 100 µM | GI50 (OVCAR-8 ovarian): 10.2 µM | TGI (OVCAR-8 ovarian): > 100 µM | GI50 (SNB-19 CNS): 21.7 µM | TGI (SNB-19 CNS): > 100 µM | GI50 (A498 renal): 13.5 µM | TGI (A498 renal): 42.5 µM | GI50 (MALME-3M melanoma): 21.3 µM | TGI (MALME-3M melanoma): > 100 µM | GI50 (SF-295 CNS): 10.3 µM | TGI (SF-295 CNS): 63.7 µM

CC1(c2ccccc2)CC12C(=O)NC(=O)NC2=O (stereo unspecified)
TGI (786-0 renal): > 100 µM | TGI (RPMI-8226 leukemia): > 100 µM | TGI (KM12 colon): > 100 µM | TGI (CCRF-CEM leukemia): > 100 µM | TGI (OVCAR-8 ovarian): > 100 µM | TGI (SNB-19 CNS): > 100 µM | TGI (MALME-3M melanoma): > 100 µM | TGI (SF-295 CNS): > 100 µM | TGI (NCI-H23 lung): > 100 µM

CC(C)(C)C(=O)Nc1ccccc1Br
TGI (786-0 renal): > 100 µM | TGI (RPMI-8226 leukemia): > 100 µM | TGI (KM12 colon): > 100 µM | TGI (CCRF-CEM leukemia): > 100 µM | TGI (OVCAR-8 ovarian): > 100 µM | TGI (SNB-19 CNS): > 100 µM | TGI (MALME-3M melanoma): > 100 µM | TGI (SF-295 CNS): > 100 µM

Cc1cc(S(=O)(=O)Nc2nnc(-c3ccco3)c(-c3ccco3)n2)c(SCc2ccccc2)cc1Cl
GI50 (786-0 renal): 38.8 µM | TGI (786-0 renal): > 100 µM | GI50 (RPMI-8226 leukemia): 18.4 µM | TGI (RPMI-8226 leukemia): 61.4 µM | GI50 (KM12 colon): 27.8 µM | TGI (KM12 colon): > 100 µM | GI50 (CCRF-CEM leukemia): 23.2 µM | TGI (CCRF-CEM leukemia): 66.1 µM | GI50 (OVCAR-8 ovarian): 26.6 µM | TGI (OVCAR-8 ovarian): 71.1 µM | GI50 (SNB-19 CNS): 21.7 µM | TGI (SNB-19 CNS): 43.8 µM | GI50 (MALME-3M melanoma): 19.8 µM | TGI (MALME-3M melanoma): 43.9 µM | GI50 (SF-295 CNS): 29.2 µM | TGI (SF-295 CNS): 83.9 µM | GI50 (NCI-H23 lung): 22.8 µM | TGI (NCI-H23 lung): 46.9 µM

CN(C)CCCNC(=O)c1cc(NC(=O)c2cc(NC(=O)CCCN3c4ccccc4C=Cc4ccccc43)cn2C)cn1C
GI50 (786-0 renal): 11.4 µM | TGI (786-0 renal): > 100 µM | GI50 (RPMI-8226 leukemia): 2.29 µM | TGI (RPMI-8226 leukemia): 6.21 µM | GI50 (KM12 colon): 2.42 µM | TGI (KM12 colon): 10.8 µM | GI50 (CCRF-CEM leukemia): 2.82 µM | TGI (CCRF-CEM leukemia): 12.7 µM | GI50 (OVCAR-8 ovarian): 17.3 µM | TGI (OVCAR-8 ovarian): 72.2 µM | GI50 (SNB-19 CNS): 6.32 µM | TGI (SNB-19 CNS): > 100 µM | GI50 (A498 renal): 22.4 µM | TGI (A498 renal): 53.3 µM | GI50 (SF-295 CNS): 2.07 µM | TGI (SF-295 CNS): 5.38 µM | GI50 (NCI-H23 lung): 10.6 µM | TGI (NCI-H23 lung): 54.8 µM

Cc1ccc(C)c(-n2c(-c3ccc(Br)cc3)csc2=NC(=O)c2ccccc2F)c1
GI50 (786-0 renal): > 100 µM | TGI (786-0 renal): > 100 µM | GI50 (OVCAR-8 ovarian): > 100 µM | TGI (OVCAR-8 ovarian): > 100 µM | GI50 (SNB-19 CNS): > 100 µM | TGI (SNB-19 CNS): > 100 µM | GI50 (A498 renal): > 100 µM | TGI (A498 renal): > 100 µM | GI50 (MALME-3M melanoma): > 100 µM | TGI (MALME-3M melanoma): > 100 µM | GI50 (SF-295 CNS): 52.4 µM | TGI (SF-295 CNS): > 100 µM

COCC1N=C(c2ccc(OC)c(OCc3ccccc3)c2OC)O[C@H]1c1ccccc1 (stereo partly specified)
TGI (786-0 renal): 96.1 µM | TGI (RPMI-8226 leukemia): 36.9 µM | TGI (KM12 colon): 96.2 µM | TGI (CCRF-CEM leukemia): 60.8 µM | TGI (OVCAR-8 ovarian): > 100 µM | TGI (SNB-19 CNS): > 100 µM | TGI (A498 renal): 79.7 µM | TGI (SF-295 CNS): 93.8 µM | TGI (NCI-H23 lung): > 100 µM

O=NN(CCCl)C(=O)NCc1ccc[n+]([O-])c1
TGI (786-0 renal): > 100 µM | TGI (RPMI-8226 leukemia): > 100 µM | TGI (KM12 colon): > 100 µM | TGI (CCRF-CEM leukemia): > 100 µM | TGI (OVCAR-8 ovarian): > 100 µM | TGI (MALME-3M melanoma): > 100 µM | TGI (SF-295 CNS): > 100 µM | TGI (NCI-H23 lung): > 100 µM

CC1=C2C(=CC(C)(CO)C2O)C(=O)C(C)(O)C12CC2 (stereo unspecified)
TGI (786-0 renal): 0.014 µM | TGI (KM12 colon): 0.0219 µM | GI50 (CCRF-CEM leukemia): 0.00172 µM | TGI (CCRF-CEM leukemia): 0.0686 µM | TGI (OVCAR-8 ovarian): 0.0127 µM | TGI (SNB-19 CNS): 0.0422 µM | TGI (A498 renal): 0.0204 µM | TGI (MALME-3M melanoma): 0.0105 µM | TGI (SF-295 CNS): 0.00392 µM | TGI (NCI-H23 lung): 0.00996 µM

CC(C)SC1SCC2C(=O)N(C)C3(CC3C)C(=O)OCC(NC(=O)c3nc4ccccc4cc3O)C(=O)NC(C)C(=O)N(C)C1C(=O)N(C)C1(CC1C)C(=O)OCC(NC(=O)c1nc3ccccc3cc1O)C(=O)NC(C)C(=O)N2C (stereo unspecified)
TGI (786-0 renal): < 0.0001 µM | TGI (RPMI-8226 leukemia): < 0.0001 µM | TGI (KM12 colon): < 0.0001 µM | TGI (CCRF-CEM leukemia): < 0.0001 µM | TGI (A498 renal): < 0.0001 µM | TGI (SF-295 CNS): 0.00809 µM | TGI (NCI-H23 lung): < 0.0001 µM

O=C(O)CSCC(=O)c1ccccc1
TGI (786-0 renal): > 100 µM | TGI (RPMI-8226 leukemia): > 100 µM | TGI (KM12 colon): > 100 µM | TGI (OVCAR-8 ovarian): > 100 µM | TGI (SNB-19 CNS): > 100 µM | TGI (A498 renal): > 100 µM | TGI (MALME-3M melanoma): > 100 µM | TGI (SF-295 CNS): > 100 µM | TGI (NCI-H23 lung): > 100 µM

O=C(Oc1cccc(Nc2ncnc3ccccc23)c1)c1ccccc1Cl
GI50 (786-0 renal): 20.8 µM | TGI (786-0 renal): 71.9 µM | GI50 (KM12 colon): 14.4 µM | TGI (KM12 colon): 31.4 µM | GI50 (CCRF-CEM leukemia): 19.3 µM | TGI (CCRF-CEM leukemia): 65.1 µM | GI50 (OVCAR-8 ovarian): 20.2 µM | TGI (OVCAR-8 ovarian): 59.1 µM | GI50 (SNB-19 CNS): 52.7 µM | TGI (SNB-19 CNS): > 100 µM | GI50 (A498 renal): 23.8 µM | TGI (A498 renal): 49.4 µM | GI50 (MALME-3M melanoma): 23.9 µM | TGI (MALME-3M melanoma): 57.1 µM | GI50 (SF-295 CNS): 20 µM | TGI (SF-295 CNS): 47.5 µM | GI50 (NCI-H23 lung): 13 µM | TGI (NCI-H23 lung): 31.8 µM

O=C(Nc1ccccc1)O/N=C1/CCCC/C1=C\c1ccccc1
TGI (786-0 renal): 32.5 µM | TGI (RPMI-8226 leukemia): 52.5 µM | TGI (CCRF-CEM leukemia): 33.1 µM | TGI (OVCAR-8 ovarian): 42.8 µM | TGI (A498 renal): 53.6 µM | TGI (SF-295 CNS): 29.9 µM | TGI (NCI-H23 lung): 48.8 µM

O=C(Nc1cccc(C2=NCCN2)c1)c1ccc(OCCCOc2ccc(C(=O)Nc3cccc(C4=NCCN4)c3)cc2)cc1
GI50 (786-0 renal): 3.69 µM | TGI (786-0 renal): > 100 µM | GI50 (CCRF-CEM leukemia): 4 µM | TGI (CCRF-CEM leukemia): > 100 µM | GI50 (OVCAR-8 ovarian): 4.03 µM | TGI (OVCAR-8 ovarian): > 100 µM | GI50 (SNB-19 CNS): 2.69 µM | TGI (SNB-19 CNS): > 100 µM | GI50 (A498 renal): 2.3 µM | TGI (A498 renal): 8.37 µM | GI50 (SF-295 CNS): 3.29 µM | TGI (SF-295 CNS): > 100 µM

COc1cccc(/C=C\c2cc(OC)c(OC)c(OC)c2)c1
TGI (786-0 renal): 71.5 µM | TGI (RPMI-8226 leukemia): 42.3 µM | TGI (KM12 colon): > 100 µM | TGI (CCRF-CEM leukemia): 22.8 µM | TGI (OVCAR-8 ovarian): > 100 µM | TGI (SNB-19 CNS): > 100 µM | TGI (MALME-3M melanoma): 42.8 µM | TGI (NCI-H23 lung): 9.4 µM

COc1cccc2c(Nc3ccc(C(=O)NCCNCCO)cc3)cc(-c3ccccc3)nc12
GI50 (786-0 renal): 33.5 µM | TGI (786-0 renal): > 100 µM | GI50 (RPMI-8226 leukemia): 24.5 µM | TGI (RPMI-8226 leukemia): 60.3 µM | GI50 (KM12 colon): 33.2 µM | TGI (KM12 colon): > 100 µM | GI50 (CCRF-CEM leukemia): 20.2 µM | TGI (CCRF-CEM leukemia): 48.3 µM | GI50 (OVCAR-8 ovarian): 42.2 µM | TGI (OVCAR-8 ovarian): > 100 µM | GI50 (A498 renal): 62.5 µM | TGI (A498 renal): > 100 µM | GI50 (MALME-3M melanoma): 21 µM | TGI (MALME-3M melanoma): 37.9 µM | GI50 (SF-295 CNS): 40.9 µM | TGI (SF-295 CNS): > 100 µM | GI50 (NCI-H23 lung): 63.3 µM | TGI (NCI-H23 lung): > 100 µM

From PubChem BioAssay (NCI)
